For orientation: MIC means the lowest concentration found to suppress growth.

Common to all, as to assay: Bacterial growth minimal inhibitory concentration (broth microdilution, CLSI M7-A7)
Type in all cases: cell-based
For orientation: Broth dilution looks for growth in wells or tubes with falling amounts of substance.

Assay [1] has as its system Acinetobacter baumannii T6474. Conditions: Acinetobacter baumannii, T6474, cation-adjusted Mueller-Hinton Broth, multiply-resistant strain (in particular quinolone-resistant). In outline:
(§1)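 Read-out is the minimal inhibitory concentration in mg/L, obtained by microdilution in cation-adjusted Mueller-Hinton broth following CLSI M7-A7. Quinolone resistance is present in A798 and T6474, which are multiply resistant, but absent in A894 and in methicillin-sensitive ATCC29213.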

In assay [2] the test system is Enterococcus faecium A949. Conditions: Enterococcus faecium, A949, cation-adjusted Mueller-Hinton Broth, multiply-resistant strain (in particular quinolone-resistant), read-out: MIC for E. faecium A949. In outline:
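Broth microdilution after CLSI M7-A7 in cation-adjusted Mueller-Hinton medium gave MIC values in mg/L.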

The subject of assay [3] is Moraxella catarrhalis A894. Conditions: Moraxella catarrhalis, A894, cation-adjusted Mueller-Hinton Broth, quinolone-sensitive strain. In short, it runs like this: as §1
The test system of assay [4] is Staphylococcus aureus A798. To be noted: Staphylococcus aureus, A798, cation-adjusted Mueller-Hinton Broth, multiply-resistant strain (in particular quinolone-resistant), read-out: MIC for S. aureus A798. In short, it runs like this: as §1
Assay [5] concerns Staphylococcus aureus ATCC29213. To be noted: Staphylococcus aureus, ATCC29213, cation-adjusted Mueller-Hinton Broth, methicillin-sensitive and quinolone-sensitive strain, read-out: MIC for S. aureus ATCC29213. In short, it runs like this:
as §1

SMILES strings stand for the structures. Values after ≈ are worked out from the molar mass of the structure shown.

As for `N#Cc1cccc(-c2cccc(CNCC[C@H]3CN(c4ccc5c(n4)NC(=O)CO5)C(=O)O3)c2O)n1` [Example 92, 6-[2-hydroxy-3-({2-[(S)-2-oxo-3-(3-oxo-3,4-dihydro-2H-pyrido[3,2-b][1,4]oxazin-6-yl)-oxazolidin-5-yl]-ethylamino}-methyl)-phenyl]-pyridine-2-carbonitrile], the MIC in assay [1] was 0.063 µg/mL (≈ 0.129 µM); in assay [2] it was 0.5 µg/mL (≈ 1.03 µM); in assay [3] it was no more than 0.016 µg/mL; in assay [4] it was no more than 0.016 µg/mL; in assay [5], 0.031 µg/mL (≈ 0.0637 µM).

Take `COc1cccc(-c2cc(CNCC[C@@H]3CN(c4ccc5c(c4)NC(=O)CS5)C(=O)O3)ccc2F)c1` [Example 11, 6-((R)-5-{2-[(6-fluoro-3′-methoxy-biphenyl-3-ylmethyl)-amino]-ethyl}-2-oxo-oxazolidin-3-yl)-4H-benzo[1,4]thiazin-3-one]: the minimal inhibitory concentration (MIC) in assay [1] worked out at 2 µg/mL (≈ 3.94 µM); in assay [2] it was 8 µg/mL (≈ 15.8 µM); in assay [3] it was 0.125 µg/mL (≈ 0.246 µM); in assay [4], 1 µg/mL (≈ 1.97 µM); in assay [5], 1 µg/mL (≈ 1.97 µM).

`COc1cccc(-c2nccc(CNCC[C@H]3CN(c4ccc5c(n4)NC(=O)CO5)C(=O)O3)n2)c1` [Example 102, 6-[(S)-5-(2-{[2-(3-methoxy-phenyl)-pyrimidin-4-ylmethyl]-amino}-ethyl)-2-oxo-oxazolidin-3-yl]-4H-pyrido[3,2-b][1,4]oxazin-3-one]: the MIC in assay [1] was determined as 1 µg/mL (≈ 2.1 µM); in assay [2], 4 µg/mL (≈ 8.39 µM); in assay [3], 0.063 µg/mL (≈ 0.132 µM); in assay [4], 1 µg/mL (≈ 2.1 µM); in assay [5], 0.25 µg/mL (≈ 0.525 µM).

On to `COc1cnnc(-c2cccc(CNCC[C@H]3CN(c4ccc5c(n4)NC(=O)CS5)C(=O)O3)c2)c1` [Example 99, 6-((S)-5-{2-[3-(5-methoxy-pyridazin-3-yl)-benzylamino]-ethyl}-2-oxo-oxazolidin-3-yl)-4H-pyrido[3,2-b][1,4]thiazin-3-one], for which the MIC in assay [1] is 0.125 µg/mL (≈ 0.254 µM); in assay [2] it was 2 µg/mL (≈ 4.06 µM); in assay [3], no more than 0.016 µg/mL; in assay [4], 0.031 µg/mL (≈ 0.0629 µM); in assay [5], 0.031 µg/mL (≈ 0.0629 µM).

On to `COc1cc(C#N)cc(-c2cccc(CNCC[C@@H]3CN(c4ccc5c(c4)NC(=O)CS5)C(=O)O3)c2)n1` [Example 2, 2-methoxy-6-[3-({2-[(R)-2-oxo-3-(3-oxo-3,4-dihydro-2H-benzo[1,4]thiazin-6-yl)-oxazolidin-5-yl]-ethylamino}-methyl)-phenyl]-isonicotinonitrile], for which the MIC was 0.25 µg/mL (≈ 0.485 µM) in assay [1]; 0.5 µg/mL (≈ 0.97 µM) in assay [2]; no more than 0.016 µg/mL in assay [3]; no more than 0.016 µg/mL in assay [4]; no more than 0.016 µg/mL in assay [5].

In the case of `N#Cc1cnc(O)c(-c2cccc(CNCC[C@@H]3CN(c4ccc5c(c4)NC(=O)CS5)C(=O)O3)c2)c1` [Example 19, 6-hydroxy-5-[3-({2-[(R)-2-oxo-3-(3-oxo-3,4-dihydro-2H-benzo[1,4]thiazin-6-yl)-oxazolidin-5-yl]-ethylamino}-methyl)-phenyl]-nicotinonitrile], the MIC in assay [1] is 1 µg/mL (≈ 1.99 µM); in assay [2], greater than 8 µg/mL; in assay [3], 0.125 µg/mL (≈ 0.249 µM); in assay [4] it was 1 µg/mL (≈ 1.99 µM); in assay [5], 1 µg/mL (≈ 1.99 µM).

Take `N#Cc1cccc(-c2cccc(CNCC[C@H]3CN(c4ccc5c(n4)NC(=O)CS5)C(=O)O3)c2)c1` [Example 100, 3′-({2-[(S)-2-oxo-3-(3-oxo-3,4-dihydro-2H-pyrido[3,2-b][1,4]thiazin-6-yl)-oxazolidin-5-yl]-ethylamino}-methyl)-biphenyl-3-carbonitrile]: the minimal inhibitory concentration (MIC) was 0.125 µg/mL (≈ 0.257 µM) in assay [1]; 0.5 µg/mL (≈ 1.03 µM) in assay [2]; no more than 0.016 µg/mL in assay [3]; no more than 0.016 µg/mL in assay [4]; no more than 0.016 µg/mL in assay [5].

In the case of `N#Cc1cccc(-c2cccc(CNCC[C@@H]3CN(c4ccc5c(c4)NC(=O)CS5)C(=O)O3)c2)n1` [Example 18, 6-[3-({2-[(R)-2-oxo-3-(3-oxo-3,4-dihydro-2H-benzo[1,4]thiazin-6-yl)-oxazolidin-5-yl]-ethylamino}-methyl)-phenyl]-pyridine-2-carbonitrile], the MIC in assay [1] amounted to 0.25 µg/mL (≈ 0.515 µM); in assay [2] it was 4 µg/mL (≈ 8.24 µM); in assay [3], 0.031 µg/mL (≈ 0.0638 µM); in assay [4] it was 0.25 µg/mL (≈ 0.515 µM); in assay [5], 0.25 µg/mL (≈ 0.515 µM).

Regarding `COc1cnnc(-c2cc(CNCC[C@H]3CN(c4ccc5c(n4)NC(=O)CO5)C(=O)O3)ccc2O)c1` [Example 89, 6-((S)-5-{2-[4-hydroxy-3-(5-methoxy-pyridazin-3-yl)-benzylamino]-ethyl}-2-oxo-oxazolidin-3-yl)-4H-pyrido[3,2-b][1,4]oxazin-3-one], the MIC was 0.125 µg/mL (≈ 0.254 µM) in assay [1]; 8 µg/mL (≈ 16.2 µM) in assay [2]; no more than 0.016 µg/mL in assay [3]; 0.063 µg/mL (≈ 0.128 µM) in assay [4]; 0.063 µg/mL (≈ 0.128 µM) in assay [5].

Take `COc1ccc(C#N)cc1-c1cccc(CNCC[C@H]2CN(c3ccc4c(n3)NC(=O)CO4)C(=O)O2)c1` [Example 76, 6-methoxy-3′-({2-[(S)-2-oxo-3-(3-oxo-3,4-dihydro-2H-pyrido[3,2-b][1,4]oxazin-6-yl)-oxazolidin-5-yl]-ethylamino}-methyl)-biphenyl-3-carbonitrile]: the minimum inhibitory concentration (MIC) in assay [1] was 2 µg/mL (≈ 4 µM); in assay [2] it was 8 µg/mL (≈ 16 µM); in assay [3], no more than 0.063 µg/mL; in assay [4] it was 1 µg/mL (≈ 2 µM); in assay [5], 0.5 µg/mL (≈ 1 µM).

As to `CCOC(=O)COc1cccc(-c2cccc(CNCC[C@H]3CN(c4ccc5c(n4)NC(=O)CO5)C(=O)O3)c2)c1` [Example 68, [3′-({2-[(S)-2-oxo-3-(3-oxo-3,4-dihydro-2H-pyrido[3,2-b][1,4]oxazin-6-yl)-oxazolidin-5-yl]-ethylamino}-methyl)-biphenyl-3-yloxy]-acetic acid ethyl ester], the minimum inhibitory concentration (MIC) was 8 µg/mL (≈ 14.6 µM) in assay [1]; greater than 8 µg/mL in assay [2]; 0.125 µg/mL (≈ 0.229 µM) in assay [3]; 1 µg/mL (≈ 1.83 µM) in assay [4]; 1 µg/mL (≈ 1.83 µM) in assay [5].

For the compound `COc1cnnc(-c2cccc(CNCCc3nn(-c4ccc5c(n4)NC(=O)CO5)c(=O)o3)c2)c1` [Example 108, 6-(5-{2-[3-(5-methoxy-pyridazin-3-yl)-benzylamino]-ethyl}-2-oxo-[1,3,4]oxadiazol-3-yl)-4H-pyrido[3,2-b][1,4]oxazin-3-one], the MIC in assay [1] is 1 µg/mL (≈ 2.1 µM); in assay [2] it was greater than 8 µg/mL; in assay [3] it was 0.125 µg/mL (≈ 0.263 µM); in assay [4] it was 4 µg/mL (≈ 8.41 µM); in assay [5] it was 2 µg/mL (≈ 4.21 µM).

`COc1cc(-c2cccc(CNCC[C@H]3CN(c4ccc5c(n4)NC(=O)CO5)C(=O)O3)c2)ccn1` [Example 55, 6-((S)-5-{2-[3-(2-methoxy-pyridin-4-yl)-benzylamino]-ethyl}-2-oxo-oxazolidin-3-yl)-4H-pyrido[3,2-b][1,4]oxazin-3-one]: the MIC in assay [1] was 1 µg/mL (≈ 2.1 µM); in assay [2] it was greater than 8 µg/mL; in assay [3], 0.031 µg/mL (≈ 0.0652 µM); in assay [4], 2 µg/mL (≈ 4.21 µM); in assay [5], 2 µg/mL (≈ 4.21 µM).

For the compound `N#Cc1cccc(-c2cccc(CNCC[C@H]3CN(c4ccc5c(c4)NC(=O)CO5)C(=O)O3)c2O)n1` [Example 88, 6-[2-hydroxy-3-({2-[(S)-2-oxo-3-(3-oxo-3,4-dihydro-2H-benzo[1,4]oxazin-6-yl)-oxazolidin-5-yl]-ethylamino}-methyl)-phenyl]-pyridine-2-carbonitrile], the MIC in assay [1] was 0.25 µg/mL (≈ 0.515 µM); in assay [2], 4 µg/mL (≈ 8.24 µM); in assay [3] it was no more than 0.016 µg/mL; in assay [4] it was 0.25 µg/mL (≈ 0.515 µM); in assay [5], 0.125 µg/mL (≈ 0.257 µM).

As for `COc1ccc(-c2cccc(CNCC[C@H]3CN(c4ccc5c(n4)NC(=O)CO5)C(=O)O3)c2)cc1OC` [Example 48, 6-((S)-5-{2-[(3′,4′-dimethoxy-biphenyl-3-ylmethyl)-amino]-ethyl}-2-oxo-oxazolidin-3-yl)-4H-pyrido[3,2-b][1,4]oxazin-3-one], the minimal inhibitory concentration (MIC) in assay [1] worked out at 16 µg/mL (≈ 31.7 µM); in assay [2], 16 µg/mL (≈ 31.7 µM); in assay [3] it was 0.125 µg/mL (≈ 0.248 µM); in assay [4], 4 µg/mL (≈ 7.93 µM); in assay [5], 4 µg/mL (≈ 7.93 µM).

For the origin of these results see patent publication US9527867B2, “Antibacterial biaromatic derivatives” (Actelion Pharmaceuticals Ltd., priority 2013, dated 2016).
